Assay results as given in US10220019B2, “Method for treating pulmonary fibrosis comprising application of dimethylamino micheliolide” (Tianjin International Joint Academy of Biotechnology & …, priority 2016, dated 2019).

Test system: mouse pulmonary fibrosis model
Test: Mouse pulmonary fibrosis model and pharmacodynamics test of ACT001
Assay type: in vivo, Kunming mice (male)
Experimental: a) Preparation of ACT001 solution: 1 g ACT001 powder was weighed and dissolved in 100 mL 0.9% normal saline solution to prepare 10 mg/mL solution. When it was fully dissolved, it was filter sterilized with 0.22 μm filter for use, and was freshly prepared each time before use. The preparation and the use of the solution should be performed in a sterile biosafety cabinet.
b) Preparation of ethyl viologen hydrate solution: 2 g ethyl viologen hydrate was weighed and dissolved in 100 mL 0.9% normal saline to prepare 20 mg/mL solution. When it was fully dissolved, it was filter sterilized with 0.22 μm filter for use, and was freshly prepared each time before each use. The preparation and the use of the solution should be performed in a sterile biosafety cabinet.
Randomly divide 36 mice into three groups: normal group, control group (pulmonary fibrosis model group), ACT001 group (administering ACT001 after modeling), and 12 animals per group. Conduct a one-off intragastric administration of 0.15 mL of 0.9% normal saline to each animal in the normal group; and conduct a one-off intragastric administration of 0.15 mL of the ethyl viologen hydrate solution to each animal in the control group and ACT001 group.
3 weeks after modeling, drug treatment was given to the mice. Conduct an intragastric administration of 0.1 mL of 0.9% normal saline to each animal in the normal and control groups, and conduct an intragastric administration of 0.1 mL ACT001 aqueous solution to each animal in the ACT001 group. Once every 2 days.
At the third week after modeling, the second week after drug administration, and the third week after drug administration, four mice were each taken from the normal group, control group and ACT001 group, sacrificed by breaking their necks, their lung tissues were sampled, after fixing the tissues with 10% formalin for two days, the fixing solution on the surface of the lung tissues was washed away with running water, the lung tissues were then dehydrated with a pathological tissue dehydration machine, the tissues were embed in paraffin, the embedded tissues were sectioned, H.E. staining was conducted and slides were covered before observing the changes of the lung tissues under microscope.

[1] = after 3 weeks of drug administration
[2] = second week after ACT001 administration, intragastric 0.1 mL once every 2 days

CC1=C2CC[C@@](C)(O)C2[C@H]2OC(=O)[C@@H](CN(C)C)[C@@H]2CC1 (stereo partly shown) [ACT001, dimethylamino micheliolide]
difference in pulmonary coefficient versus the normal group [1]: no significant difference
pulmonary coefficient lower relative to the control group [1]: 0.47%
average lung weight (after 3 weeks of drug administration, normal group 0.4012 g, control group 0.5983 g): 0.4034 g
average of pulmonary coefficient (lung wet mass/body weight*100%) (after 3 weeks of drug administration, normal group 0.81%, control group 1.32%): 0.85%
average body weight (after 3 weeks of drug administration, normal group 49.2352 g, control group 45.4575 g): 47.576 g
blood supply in the lung tissue (lung tissue morphology under stereoscopic microscope) (second week after ACT001 administration, intragastric 0.1 mL of 10 mg/mL solution once every 2 days, started 3 weeks after modeling, compared with control group): significant improvement of blood supply in the lung tissue
alveolar structures (lung tissue section, H.E. staining) [2]: restored to normal
deposition in the lung interstitials (lung tissue section, H.E. staining) [2]: significantly reduced
fibrosis degree of the lung (lung tissue section, H.E. staining) (second week after ACT001 administration, intragastric 0.1 mL once every 2 days, compared with control group): significant improvement for the fibrosis degree of the lung
level of pulmonary fibrosis (lung tissue morphology and tissue section) (third week after ACT001 administration, compared with control group): significantly reduced
